How the values were obtained:
[1] = oral administration of FMdC in a conventional tablet form, systemic uptake / bioavailability; type: in vivo; conditions: mammalian patient
Method: Notwithstanding these teachings in the art, a problem has been encountered when the compound is administered in an oral form.

[2] = pH-rate profile for the degradation of FMdC (pH-stability profile, FIG. 1); type: physicochemical

patient-to-patient variability of systemic uptake [1]: high | systemic uptake of the drug (oral bioavailability) [1]: less than desirable | pH at which FMdC is most stable ([2]; Britton-Robinson buffer (pH 2 to pH 11) and 0.1N HCl (pH 1) at 60° C.): ~9 pH | stability at a pH of about 2 or less ([2]; pH of about 2 or less, 60° C.): very unstable
Structure (SMILES): Nc1ccn(C2OC(CO)[C@@H](O)/C2=C\F)c(=O)n1 (stereo partly shown) [FMdC, 2′-deoxy-2′-(fluoromethylene)cytidine]

From patent US20020019365A1, “Pharmaceutical compositions of 2'-deoxy-2'-(fluoromethylene)cytidine” (priority 2000, published 2002)
